Test: Calculation of chloride binding by cations of clay/silver wound dressing in wound exudate
Type: physicochemical
Details: without the chelation of chloride provided by the medicinal clay
Source text: Medicinal clay in a pharmaceutical composition was applied to an exemplary wound dressing, which incorporated an additional therapeutic cation, silver. Wound exudate is known to contain anions, which can interfere with the medicinal qualities of the medicinal clay and additional therapeutic agents when the medicinal clay comes into contact with the moisture of the wound exudate (a water source). Wound exudate is variable patient to patient, so an average amount of 101 mEq/L chloride anions was used. The medicinal clay of Example 1 was analyzed for cations, which may interact with the chloride in wound exudate. Table 5 describes an approximate amount of ions present the exemplary clay composition of the wound dressing (4×4 inch pad), silver added into the wound dressing for delivery with the clay, and wound exudate, as well as the amount of each in the exemplary wound dressing and wound exudate (grams). […] A skilled artisan will appreciate from the disclosure of the calculations that such a minimum effective amount can vary based on an exudate sample. Accordingly, the calculated atoms and weight (g) in Table 5 can have a variation of about ±30%, ±25%, ±20%, ±15%, or ±10%. The exemplary wound dressings comprise from about 0.1 to about 2.5 grams of the clay composition, preferably from about 0.2 to about 0.8 grams of the clay composition. […]

Compound	silver in the dressing that chloride could bind prior to release [%]
[Ag+] [silver]	72

Test: not given
Details: ion pair with chloride; cited from earlier work

Compound	Lattice Energy [kJ/mol]
[Cl][Ag] [AgCl]	783
[Cl][Al]([Cl])[Cl] [AlCl3]	5137
[Ca+2].[Cl-].[Cl-] [CaCl2]	2268
[Cl][Fe][Cl] [FeCl2]	2569
[Cl][Fe]([Cl])[Cl] [FeCl3]	5364
[Cl-].[K+] [KCl]	701
[Cl-].[Cl-].[Mg+2] [MgCl2]	2477
[Cl][Mn][Cl] [MnCl2]	2510
[Cl-].[Na+] [NaCl]	769

Reference: patent US12213993B2, “Coated medicinal clay compositions, pharmaceutical compositions, and delivery of cation sources and methods of use thereof” (priority 2021, dated 2025)
